Results published in BindingDB's records for doi:10.1002/cbic.201300770 (Northeast Ohio Medial University, 2014).

Assays:
[1] = molecular target: T1, Amine oxidase [flavin-containing] A (Homo sapiens, UniProt P21397); assay: MAO Enzyme Assays; settings: pH 7.4
T1 sequence (P21397 whole entry): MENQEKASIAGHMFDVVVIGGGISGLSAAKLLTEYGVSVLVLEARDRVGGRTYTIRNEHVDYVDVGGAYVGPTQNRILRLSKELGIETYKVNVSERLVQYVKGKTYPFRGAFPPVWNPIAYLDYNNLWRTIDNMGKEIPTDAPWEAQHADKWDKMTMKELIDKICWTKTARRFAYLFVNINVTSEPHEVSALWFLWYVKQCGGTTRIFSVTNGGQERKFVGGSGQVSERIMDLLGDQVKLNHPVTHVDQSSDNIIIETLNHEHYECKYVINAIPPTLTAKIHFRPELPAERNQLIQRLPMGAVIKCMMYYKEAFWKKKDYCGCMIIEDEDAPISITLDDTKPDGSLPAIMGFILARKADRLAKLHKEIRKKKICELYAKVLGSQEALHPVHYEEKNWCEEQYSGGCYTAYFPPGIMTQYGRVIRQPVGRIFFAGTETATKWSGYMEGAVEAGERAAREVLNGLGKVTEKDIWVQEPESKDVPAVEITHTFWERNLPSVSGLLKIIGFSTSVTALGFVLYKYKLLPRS
Description: (§1) The buffer system used was a 0.1 M phosphate buffer (pH 7.4). The assays were carried out in a fluorescent 96-well plate. The final concentrations of MAO-A and MAO-B were 6 µg/mL and 15 µg/mL, respectively. The final concentration of kynuramine was 40 µM for MAO-A or 20 µM for MAO-B. The compounds (10 mM stock solution in DMSO; less than 2% (v/v) final concentration of DMSO in the assay) were incubated with MAO and the substrate for 20 min, and quenched with the addition of 2 N NaOH.

[2] = molecular target: T2, Amine oxidase [flavin-containing] B (Homo sapiens, UniProt P27338); assay: MAO Enzyme Assays; settings: pH 7.4
T2 sequence (P27338 whole entry): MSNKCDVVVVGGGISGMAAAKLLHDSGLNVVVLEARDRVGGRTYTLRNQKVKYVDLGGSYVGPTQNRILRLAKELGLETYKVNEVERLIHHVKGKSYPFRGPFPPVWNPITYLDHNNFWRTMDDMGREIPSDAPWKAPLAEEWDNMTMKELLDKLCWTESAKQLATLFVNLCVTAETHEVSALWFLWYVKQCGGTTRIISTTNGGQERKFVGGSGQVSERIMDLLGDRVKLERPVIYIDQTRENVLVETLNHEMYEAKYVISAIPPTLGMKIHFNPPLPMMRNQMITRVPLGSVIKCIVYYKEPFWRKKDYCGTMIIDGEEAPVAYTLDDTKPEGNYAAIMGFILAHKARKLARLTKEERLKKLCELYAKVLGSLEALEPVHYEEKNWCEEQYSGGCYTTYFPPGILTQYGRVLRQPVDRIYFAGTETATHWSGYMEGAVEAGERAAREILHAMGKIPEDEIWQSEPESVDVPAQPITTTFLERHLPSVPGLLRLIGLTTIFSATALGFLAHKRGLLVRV
Description: as §1

| Compound | IC50 [1] | IC50 [2] |
| --- | --- | --- |
| CN(C)c1ccc(/N=N/c2ccccc2)cc1 [(E)-N,N-dimethyl-4-(phenyldiazenyl)aniline] | 4.64 µM | 0.0146 µM |
| c1ccc(/N=N/c2ccccc2)cc1 [(E)-1,2-diphenyldiazene] | 22.9 µM | 2.66 µM |
